Among the data in patent publication US8981131B2, “Tricyclic compounds for the treatment of inflammatory disorders” (Piramal Enterprises Limited, priority 2007, dated 2015) are IC50 values, retold here.

Broadly, the IC50 is the concentration needed to halve the response being measured.

Holding throughout (details): LPS (1 μg/mL)-stimulated hPBMCs, 5 hours, ELISA
Background: In an ELISA, binding on a coated surface is turned into a signal by an enzyme label.

For assay [1], the system named is TNF-α. The assay is described as follows: TNF-α inhibition in LPS-stimulated human peripheral blood mononuclear cells (primary screening). The format is cell-based. As for the experimental part: (§1) TNF-α production by lipopolysaccharides (LPS) in hPBMCs was measured according to the method described by Jansky, L. et al (Physiol. Res. 52: 593-598, 2003), incorporated herein by reference. Blood was collected from healthy donors into Potassium EDTA vacutainer tubes (BD vacutainer). The PBMCs were isolated using gradient centrifugation in Histopaque-1077 solution (Sigma). Isolated PBMCs were suspended in RPMI 1640 culture medium (Gibco BRL, Pasley, UK) containing 10% fetal bovine serum (FBS) (Hyclone, Utah, USA), 100 U/ml penicillin (Sigma Chemical Co. St Louis, Mo.) and 100 μg/ml streptomycin (Sigma Chemical Co. St Louis, Mo.). The cell concentration was adjusted to 1×10^6 cells/mL. The viability as determined by trypan blue dye exclusion was uniformly ≧98%. The cell suspension (100 μL) was added to the wells of a 96-well culture plate. Following cell plating, 79 μL of the culture medium and 1 μL of eight different concentrations of the test compounds (final concentration 0.03, 0.1, 0.3, 1, 3, 10, 30, 100 μM) dissolved in DMSO (dimethylsulfoxide, Sigma, Mo., USA) were added to the cells. The final concentration of DMSO was adjusted to 0.5%. The vehicle (0.5% DMSO) was used as control. Rolipram (30, 100 μM) was used as a standard compound. The plates were incubated for 30 min at 37° C. in an atmosphere of 5% CO2. Finally, 20 μL (10 μg/mL) per well of LPS, (Escherchia coli 0127:B8, Sigma Chemical Co., St. Louis, Mo.) was added, for a final concentration of 1 μg/mL. The plates were incubated at 37° C. for 5 hours in an atmosphere of 5% CO2. To assess the cytotoxic effect of the test compounds, the cellular viability test was performed using MTS (3-(4,5-dimethylthiazol-2-yl)-5-(3-carboxymethoxyphenyl)-2-(4-sulfonyl)-2H-tetrazolium) reagent after 5 hours of incubation. Supernatants were harvested and assayed for TNF-α, IL-1β, IL-6 and IL-8 by ELISA as described by the manufacturer. (OptiEIA ELISA sets, BD Biosciences, Pharmingen). The 50% inhibitory concentration (IC50) values were calculated by a nonlinear regression method using GraphPad software (Prism 3.03)

Assay [2] deals with IL-1β. The assay is described as follows: IL-1β released by LPS-stimulated hPBMCs. The format is cell-based, Human. The procedure: as §1
In assay [3] the test system is IL-6. The assay is described as follows: IL-6 released by LPS-stimulated hPBMCs. The format is cell-based, Human. The procedure:
as §1

Assay [4] relates to IL-8. Kind of assay: IL-8 released by LPS-stimulated hPBMCs. The format is cell-based, Human. As for the experimental part: as §1

Counter-ions that a name gives are not always drawn.

Consider `CC(=O)OCC1(O)C(=O)O[C@H]2C3=C(C)CCC[C@]3(C)CCC21O` (stereo partly drawn) [Compound of example 3, ((5aR,9bS)-3,3a-Dihydroxy-5a,9-dimethyl-2-oxo-2,3,3a,4,5,5a,6,7,8,9b-decahydronaphtho[1,2-b]furan-3-yl)methyl acetate], for which the IC50 in assay [1] (Homo sapiens, PBMC) worked out at 500 nM. For `CC1=C2[C@@H]3OC(=O)C(CN4CCCCC4)C3(O)CC[C@@]2(C)CCC1` (stereo partly drawn) [Compound of example 17, (5aR,9bS)-3a-Hydroxy-5a,9-dimethyl-3-(piperidin-1-ylmethyl)-3,3a,4,5,5a,6,7,8-octahydronaphtho[1,2-b]furan-2(9bH)-one], the IC50 in assay [1] (Homo sapiens, PBMC) is 700 nM; in assay [2] (Homo sapiens) it was 260 nM; in assay [3] (Homo sapiens), 3000 nM; in assay [4] (Homo sapiens), 27600 nM. Turning to `CC12CCCC3(C)OC13C1OC(=O)C(CN3CCCCC3)C1(O)CC2` (centres unmarked) [Compound of example 18, 13-(Piperidin-1-yl)-4,5-epoxy-7-hydroxyeudesm-6,12-olide], the 50% inhibitory concentration (IC50) worked out at 400 nM in assay [1], 200 nM in assay [2], 900 nM in assay [3] and 9200 nM in assay [4]. `CC1=C2[C@@H]3OC(=O)C(CN4CCOCC4)C3(O)CC[C@@]2(C)CCC1` (stereo partly drawn) [Compound of example 22, (5aR,9bS)-3a-Hydroxy-5a,9-dimethyl-3-(morpholinomethyl)-3,3a,4,5,5a,6,7,8-octahydronaphtho[1,2-b]furan-2(9bH)-one] registered an IC50 in assay [1] (Homo sapiens, PBMC) of 700 nM. For the molecule `CC1=C2[C@@H]3OC(=O)C(CN4CC[S+]([O-])CC4)C3(O)CC[C@@]2(C)CCC1` (stereo partly drawn) [Compound of example 25, (5aR,9bS)-3a-Hydroxy-5a,9-dimethyl-3-(thiomorpholino-1-oxide-methyl)-3,3a,4,5,5a,6,7,8-octahydronaphtho[1,2-b]furan-2(9bH)-one], the IC50 in assay [1] amounted to 3300 nM.

In assay [1] (Homo sapiens, PBMC), `CC1=C2[C@@H]3OC(=O)C(CN4CCN(Cc5ccccc5)CC4)C3(O)CC[C@@]2(C)CCC1` (stereo partly drawn) [Compound of example 27, (5aR,9bS)-3-((4-Benzylpiperazin-1-yl)methyl)-3a-hydroxy-5a,9-dimethyl-3,3a,4,5,5a,6,7,8-octahydronaphtho[1,2-b]furan-2(9bH)-one] showed an IC50 of 300 nM. `CC1=C2[C@@H]3OC(=O)C(CN4CCN(Cc5c(C)cccc5C)CC4)C3(O)CC[C@@]2(C)CCC1` (stereo partly drawn) [Compound of example 30, (5aR,9bS)-3-((4-(2,6-dimethylbenzyl)piperazin-1-yl)methyl)-3a-hydroxy-5a,9-dimethyl-3,3a,4,5,5a,6,7,8-octahydronaphtho[1,2-b]furan-2(9bH)-one] came in with an IC50 in assay [1] (Homo sapiens, PBMC) of 800 nM. Same read-out and setting: with `CC1=C2[C@@H]3OC(=O)C(CN4CCN(Cc5ccccc5F)CC4)C3(O)CC[C@@]2(C)CCC1` (stereo partly drawn) [Compound of example 33, (5aR,9bS)-3-((4-(2-fluorobenzyl)piperazin-1-yl)methyl)-3a-hydroxy-5a,9-dimethyl-3,3a,4,5,5a,6,7,8-octahydronaphtho[1,2-b]furan-2(9bH)-one] the figure was 300 nM. As to `CC1=C2[C@@H]3OC(=O)C(CN4CCN(Cc5c(F)cccc5C(F)(F)F)CC4)C3(O)CC[C@@]2(C)CCC1` (stereo partly drawn) [Compound of example 36, (5aR,9bS)-3-((4-(2-fluoro-6-(trifluoromethyl)benzyl)piperazin-1-yl)methyl)-3a-hydroxy-5a,9-dimethyl-3,3a,4,5,5a,6,7,8-octahydronaphtho[1,2-b]furan-2(9bH)-one], half-maximal inhibition in assay [1] (Homo sapiens, PBMC) (IC50) was put at 1100 nM.

For the molecule `COc1cc(CN2CCN(CC3C(=O)O[C@H]4C5=C(C)CCC[C@]5(C)CCC34O)CC2)c(CO)c(OC)c1` (stereo partly drawn) [Compound of example 38, (5aR,9bS)-3a-hydroxy-3-((4-(2-(hydroxymethyl)-3,5-dimethoxybenzyl)piperazin-1-yl)methyl)-5a,9-dimethyl-3,3a,4,5,5a,6,7,8-octahydronaphtho[1,2-b]furan-2(9bH)-one], the IC50 in assay [1] (Homo sapiens, PBMC) came out at 800 nM.

`CCOC(=O)N1CCN(CC2C(=O)O[C@H]3C4=C(C)CCC[C@]4(C)CCC23O)CC1` (stereo partly drawn) [Compound of example 48, Ethyl 4-(((5aR,9bS)-3a-hydroxy-5a,9-dimethyl-2-oxo-2,3,3a,4,5,5a,6,7,8,9b-decahydronaphtho[1,2-b]furan-3-yl)methyl)piperazine-1-carboxylate hydrochloride]: half-maximal inhibition in assay [1] (Homo sapiens, PBMC) (IC50) was put at 700 nM.

Take `CC1=C2[C@@H]3OC(=O)C(CN4CCN(c5ccccn5)CC4)C3(O)CC[C@@]2(C)CCC1` (stereo partly drawn) [Compound of example 53, (5aR,9bS)-3a-Hydroxy-5a,9-dimethyl-3-((4-(pyridin-2-yl)piperazin-1-yl)methyl)-3,3a,4,5,5a,6,7,8-octahydronaphtho[1,2-b]furan-2(9bH)-one]: in assay [1] (Homo sapiens, PBMC), the IC50 was determined as 800 nM. Turning to `CC1=C2[C@@H]3OC(=O)C(CN4CCN(CC5C(=O)O[C@H]6C7=C(C)CCC[C@]7(C)CCC56O)CC4)C3(O)CC[C@]2(C)CCC1` (stereo partly drawn) [Compound of example 54, (5aS,9bS)-3a-Hydroxy-3-((4-(((5aR,9bS)-3a-hydroxy-5a,9-dimethyl-2-oxo-2,3,3a,4,5,5a,6,7,8,9b-decahydronaphtho[1,2-b]furan-3-yl)methyl)piperazin-1-yl)methyl)-5a,9-dimethyl-3,3a,4,5,5a,6,7,8-octahydronaphtho[1,2-b]furan-2(9bH)-one], the IC50 came to 600 nM in assay [1] (Homo sapiens, PBMC); 200 nM in assay [2] (Homo sapiens); 2100 nM in assay [3] (Homo sapiens); 11700 nM in assay [4] (Homo sapiens). The matching figures for `CC1=C2[C@H]3OC(=O)C(CNCC4C(=O)O[C@H]5C6=C(C)CCC[C@]6(C)CCC45O)C3(O)CC[C@]2(C)CCC1` (stereo partly drawn) [Compound of example 55, (5aS,9bR)-3a-Hydroxy-3-((((5aR,9bS)-3a-hydroxy-5a,9-dimethyl-2-oxo-2,3,3a,4,5,5a,6,7,8,9b-decahydronaphtho[1,2-b]furan-3-yl)methylamino)methyl)-5a,9-dimethyl-3,3a,4,5,5a,6,7,8-octahydronaphtho[1,2-b]furan-2(9bH)-one hydrochloride]: 1200 nM, 310 nM, 3100 nM and 29000 nM. Turning to `COC(=O)CNCC1C(=O)O[C@H]2C3=C(C)CCC[C@]3(C)CCC12O` (stereo partly drawn) [Compound of example 58, Methyl 2-(((5aR,9bS)-3a-hydroxy-5a,9-dimethyl-2-oxo-2,3,3a,4,5,5a,6,7,8,9b-decahydronaphtho[1,2-b]furan-3-yl)methylamino)acetate], in assay [1] (Homo sapiens, PBMC), the IC50 turned out to be 2000 nM. The same measure, in the same setting: with `CC1=C2[C@@H]3OC(=O)C(CNC4C(O)C(O)C(CO)O[C@H]4O)C3(O)CC[C@@]2(C)CCC1` (stereo partly drawn) [Compound of example 59, (5aR,9bS)-3a-Hydroxy-5a,9-dimethyl-3-(((2R)-2,4,5-trihydroxy-6-(hydroxymethyl)tetrahydro-2H-pyran-3-ylamino)methyl)-3,3a,4,5,5a,6,7,8-octahydronaphtho[1,2-b]furan-2(9bH)-one] the figure was 400 nM; with `CC1=C2[C@@H]3OC(=O)C(CN(C)CC(O)c4ccc(O)cc4)C3(O)CC[C@@]2(C)CCC1` (stereo partly drawn) [Compound of example 60, (5aR,9bS)-3a-Hydroxy-3-(((2-hydroxy-2-(4-hydroxyphenyl)ethyl)(methyl)amino)methyl)-5a,9-dimethyl-3,3a,4,5,5a,6,7,8-octahydronaphtho[1,2-b]furan-2(9bH)-one], 200 nM.
